Results as given in patent publication US12605358B2, “Composition for preventing or treating nervous system diseases comprising compound that inhibits mTOR signaling pathway as active ingredient” (ALIAD BIOPHARMA, priority 2021, dated 2026).

How the values were obtained:
5xFAD transgenic mice = assay: Neurogenesis (Sox2/DCX/NeuN staining); assay type: in vivo; conditions: 10 to 20 mg/kg; compared to the WT normal group; FIG. 17
Method: 5xFAD animals were administered with HN-1703 at three doses for 14 days to male heterozygotes aged 6 months (all born within 3 days). The behaviors of mice were measured in a dark cycle in which the mice were active while alternating light and dark in a 12-hour cycle in a breeding room chamber, and the mice were freely accessible to food and water and bred in compliance with experimental animal ethical guidelines of Kyung Hee University. In each group, the HN-1703 was intraperitoneally injected at the same time once a day in a volume of 100 μl to 12 mice in a normal group (wild type littermate), 9 5xFAD mice in a vehicle (DMSO administration), 8 5xFAD mice in a 5 mg/kg administered group, 9 5xFAD mice in a 10 mg/kg administered group, and 9 5xFAD mice in a 20 mg/kg administered group. […] Behavioral measures were measured in Y-maze, Morris Water Maze, and Passive Avoidance test for 18 days in sequence. […]
FIG. 17 illustrates confocal scanning micrographs of a subgranular zone region of the hippocampal dentate gyrus after triple staining with an NeuN antibody as a neuron marker, an Sox2 antibody as a type1 neural progenitor cell marker, and a DCX antibody as a differentiating and migrating type3 neural precursor cell marker, and quantifying the number of Sox2+/NeuN+ cells and the number of DCX+/NeuN+ cells.

mTORC2 = biological target: T1, mTORC2 (Homo sapiens, UniProt P42345); assay: mTORC2 inhibition, immunoblot of AKT Ser473 phosphorylation in HeLa cells; assay type: cell-based; conditions: at 40 µM, FIG. 2A
T1 construct: endogenous in cells; host or cells: HeLa
Method: HeLa cells were cultured in DMEM (Dulbesco's Modified Eagles Media) containing 10% FBS, penicillin (100 units/ml), and streptomycin (100 μg/ml) at 37° C. in a 5% CO2 incubator. Culture was started by seeding 4×10^5 cells in a 100 mm culture dish, and subcultured every 3 days.
Immunoblot analysis was performed by the following method. SDS-PAGE-developed proteins were electroblotted and transferred and a PVDF membrane was blocked by shaking for 1 hour in a TBS-T buffer (20 mM Tris, 137 mM NaCl, 0.1% Tween 20) containing 5% skim milk. The membrane was repeatedly washed with a TBS-T buffer three times for 5 minutes, and reacted with a first antibody diluted in a TBS-T buffer containing 5% skim milk or 5% BSA overnight at 4° C. Thereafter, the membrane was repeatedly washed with a TBS-T buffer three times for 5 minutes, and reacted with a second antibody diluted in a TBS-T buffer containing 5% skim milk for 30 minutes at room temperature. The membrane was repeatedly washed with a TBS-T buffer containing 5% skim milk five times for 5 minutes, and then protein bands bound to the second antibody were detected by a chemiluminescence method. […]

primary cultured neurons = assay: LC3-II turnover analysis (LC3 immunoblot); assay type: cell-based, rat; conditions: FIG. 3B

COc1cc(OC)c2c(=O)c3cc4c(cc3oc2c1)OCO4 [HN-1703, 7,9-dimethoxy-10H-[1,3]dioxolo[4,5-b]xanthen-10-one]
DCX+ neural progenitor cells (5xFAD transgenic mice): twice or more | Sox2+ neural progenitor cells (5xFAD transgenic mice): more Sox2+ neural progenitor cells were observed | inhibition of mTORC2 activity (AKT Ser473 phosphorylation) compared to the control group (mTORC2): 55% | LC3-II formation compared to the control group (primary cultured neurons; in the presence of bafilomycin A1, a lysosome mature inhibitor): significantly increased LC3-II formation | LC3-II (autophagy activation marker) compared to the control group (primary cultured neurons; up to 36 hours after treating the compound): significantly increased LC3-II
